This assay concerns pig skin stratum corneum. The assay is described as follows: In vitro measurement of stratum corneum extensibility (linear extensometer). Particulars: 44% relative humidity; for Extensibility ratio: ratio of force/extension slopes before and after treatment, 2% extension at 20mm/min, application 4µl/cm² (25ng), mean ± standard deviation, ratio >1 = increased extensibility. The text has this: The benefits of the composition following topical application to skin can be quantified by in vitro measurements employing pig skin and an extensometer, in accordance with the following procedure.
Pig skin was selected for this evaluation and this was first cleaned with an aqueous ethanol-chlorohexidine solution (15 : 75 : 10:, Hibitane; ICI Pharmaceuticals). Hairs were removed by clipping followed by depilation with commercially-available thioglycolate cream (Immac : Whitehall Laboratories) and 0.4mm thick slices of skin were removed using a Davies electric skin dermatome. Stratum corneum was isolated by incubating strips of skin, dermis side down, into a solution of trypsin (0.25g% Flow Laboratories) and phosphate-buffered saline (PBS) comprising 137mM NaCl; 2.68mM KCl; 8.1mM NaHPO₄; 1.47mM KH₂PO₄ at pH 7.4 for 2-4h at 37°C. The dermis was separated from the epidermis using forceps and the latter was incubated in fresh trypsin-PBS solution overnight at 4°C. The enzyme solution was changed several times on the following day before the stratum corneum was washed with sonication (Lucas Dawe Ultrasonics; bath sonicleaner) and three changes of PBS to remove trypsin and residual cells. The corneum was then washed with distilled water containing 0.02% sodium azide (to inhibit bacterial growth) before floating onto fluorocarbon filter (Spectra-mesh; 149µ mesh). After drying at ambient temperature and humidity the sheets of corneum were cut into rectangular strips measuring 1 x 2.5cm. The pieces of corneum were mounted at each end with plastic tape (Flow tape; Flow Laboratories) and a 6mm hole was punched into the centre of each tab. During this whole procedure the orientation of the stratum corneum was maintained to ensure samples were treated on their external surfaces only in subsequent experiments. Samples were stored in petri-dishes at ambient humidity and temperature until required. […]
The extensibility of pig skin stratum corneum was measured following treatment with ω-(O-linoleoyl)ceramide having the structure (12), as herein defined. […]

Turning to `CCCCC/C=C\C/C=C\CCCCCCCC(=O)OCCCCCCCCCCCCCCCCCCCCCC(=O)NC(CO)C(O)C=CCCCCCCCCCCCCC` (stereo not drawn) [Ceramide structure (12), ω-(O-linoleoyl)ceramide], the Extensibility ratio is 2.11 ± 0.45. Further, the “extensibility ratio compared with hydrolysed ceramide structure (12) or linoleate” value (students t test, significance at the 5% level, 4µl/cm² (25ng)) was “significantly greater”.

Take `CCCCC/C=C\C/C=C\CCCCCCCC(=O)O` [Linoleate, reference compound]: the Extensibility ratio is on record as 1.29 ± 0.16.

These data come from patent publication EP0542549A1, “Use of cosmetic composition” (UNILEVER PLC, priority 1991, dated 1993).
